In patent US9131688B2, “Strigolactam derivatives as plant growth regulating compounds” (Syngenta Participations AG, priority 2011, dated 2015):

Tests used:
Type in all cases: in vivo
[1] = test system: Orobanche cumana Wallr. seeds (race 'F'); experiment: Germination of preconditioned Orobanche cumana seeds on glass fiber filter paper in petri dishes; settings: for Germination (%): mean, N = 5 x 100 seeds; for Germination inducing effect on Orobanche cumana seeds (summary in words): summary of Tables 3 to 6
Protocol: The effect of compounds of Formula (I) on germination of Orobanche cumana Wallr. seeds was evaluated on glass fiber filter paper (GFFP) in petri dishes. Seeds were preconditioned at moisture and suitable temperature to become responsive to the specific chemical germination stimulants.
Test compounds were dissolved in DMSO (10 000 mg 1^−1) and stored at room temperature in a desiccators with desiccants. The stock solutions were dissolved with deionised water to the appropriate final test concentration.
Seeds of O. cumana race ‘F’ were collected from a sunflower field in Manzanilla (Seville, Spain) in 2006 (IN146) and 2008 (IN153), respectively and stored at room temperature. To separate seeds from heavy organic debris, a modified sucrose floatation technique as described by Hartman & Tanimonure (Plant Disease (1991), 75, p. 494) was applied. Seeds were filled into a separation funnel and stirred in water. When seeds floated to the surface, the water fraction containing heavy debris was discarded. Seeds were re-suspended in 2.5M sucrose solution (specific gravity of 1.20) and heavy debris was allowed to settle down for 60 min. After removing debris, seeds were disinfected in 1% sodium hypochlorite solution and 0.025% (v/v) Tween 20 for 2 min. The seeds were decanted onto two layers of cheesecloth, rinsed with sterile deionised water and re-suspended in sterile deionised water. Two ml of the seed suspension containing approximately 150-400 seeds were spread evenly on two layers of sterile glass fiber filter paper disc ([…]) in Petri dishes (Ø9 cm). After wetting the discs with 3 ml sterile deionised water, petri dishes were sealed with parafilm. Seeds were incubated for 10 days at 20° C. in the dark for seed conditioning. The upper disc with conditioned seeds was briefly dried, transferred to a petri dish lined with a dry GFFP disc, and wetted with 6 ml of the appropriate test solution. The compounds of formula (I) were tested at concentrations of 0.001, 0.01, and 0.1 mg 1^−1. The strigolactone analogue GR24 was included as positive control and 0.001% DMSO as negative control. All treatments were tested in five replicates. Seeds were re-incubated at 20° C. in the dark and examined for germination 10 days later. The radicles of germinated seeds were stained for 5 min with blue ink (MIGROS, Switzerland) in 5% acetic acid according to Long et al. Seed Science Research (2008), 18, p. 125). After staining, seeds were photographed using a camera stand mounted with a digital SLR camera (Canon EOS 5D). Germination of 100 seeds per replicate was evaluated on digital images. Seeds were considered germinated when the radicle protruded from the seed coat.

[2] = test system: Brassica oleracea cv Botrytis (common cauliflower) seeds; experiment: Standard paper germination test for Brassica (cauliflower seeds, suboptimal conditions); settings: 25 μM, 20° C., dark; for stimulation (extra germination compared to the DMSO treatment, expressed as percentage of the DMSO treatment): tropical cauliflower 3C150, seed batch 11B295; for acceleration (hours faster than the DMSO treatment to reach 50% of total germination) / t50 (time needed to reach 50% of total germination): tropical cauliflower 3C150, seed batch 11B552
Protocol: The effect of compounds of Formula (I) on the germination of Brassica oleracea cv Botrytis or common cauliflower was tested on two types of cauliflowers: temperate types and tropical types. These two types were chosen because they display different sensitivities to the light conditions and temperature during germination. Germination of a sensitive temperate type is inhibited by light at 10° C. while for the tropical types germination at 20° is stimulated by the presence of light.
The temperate seed batches tested are part of commercially produced seed batches of various varieties which are known to be sensitive to light at 10° C. These seeds were harvested and cleaned according standard commercial procedures. Ready seed batches were used (Ready indicates the processing level of these seeds: they have been cleaned and sized but received no other treatments). The tropical seed batches tested are part of seed batches produced as basic seed (for maintenance of the parental line) and were processed accordingly.
Germination was assessed using the standard paper germination test for Brassica: Fifty seeds were placed on blue germination paper, which was moistened with the appropriate solutions, in closed oblong germination boxes. Each condition was tested in duplo. Germination boxes were placed in controlled germination cabinets with the appropriate temperature and light conditions. Germination of seeds was counted at regular intervals. Seeds were considered to be germinated when the radical had protruded the testa and endosperm (radical size approximately 1 mm). Germination kinetics were analyzed using the Germinator analysis tool in order to obtain the parameters: Gmax (maximum germination) and t50 (time needed to reach 50% of the Gmax). The Germinator analysis tool is an add-in in for excel developed by the University of Wageningen: Joosen, R. V. L., J. Kodde, et al. (2010). (“Germinator: A Software Package for High-Throughput Scoring and Curve Fitting of Arabidopsis Seed Germination.” The Plant Journal 62(1): 148-159.)
Test compounds were dissolved in DMSO at a concentration of 50 mM and stored at −20° C. The strigolactone analogue GR24 (commercially available as a racemic mixture of 2 diastereoisomers, referred to as “synthetic strigolactone GR-24” and first prepared by Johnson A. W. & all, Journal of the Chemical Society, Perkin Transactions 1, 1981, page 1734-1743) was included as positive control. Germination solutions were prepared by diluting the stock solutions with demineralized water till 25 μM. As control solutions demineralized water and a 0.05% v/v DMSO solution were used.

[3] = test system: Orobanche cumana Wallr. seeds (race 'F'); experiment: Germination of preconditioned Orobanche cumana seeds on glass fiber filter paper in petri dishes; settings: Table 5; 1.0 mg l^-1; seed lot IN153; mean, N = 5 x 100 seeds
[4] = Table 3, 0.001 mg l^-1, seed lot IN146, 10 days at 20° C. in the dark
[5] = Table 3, 0.01 mg l^-1, seed lot IN146
[6] = Table 3, 0.1 mg l^-1, seed lot IN146
[7] = Table 7, tropical cauliflower 3C150, seed batch 11B295 (Chili 2011)
[8] = Table 8, tropical cauliflower 3C150, seed batch 11B552 (South Africa 2010)
[9] = Table 6, 0.001 mg l^-1, seed lot IN153
[10] = Table 6, 0.01 mg l^-1, seed lot IN153
[11] = Table 6, 0.1 mg l^-1, seed lot IN153
[12] = Table 4, 0.001 mg l^-1, seed lot IN153
[13] = Table 4, 0.01 mg l^-1, seed lot IN153
[14] = Table 4, 0.1 mg l^-1, seed lot IN153
[15] = Table 5, 0.01 mg l^-1, seed lot IN153
[16] = Table 5, 0.1 mg l^-1, seed lot IN153

`CC1=CC(O/C=C2/C(=O)N[C@@H]3C4=C(CCCC4(C)C)C[C@H]23)OC1=O` (stereo partly drawn) [Compound P1, (3E,3aR,8bS)-8,8-dimethyl-3-[(4-methyl-5-oxo-2H-furan-2-yl)oxymethylene]-3a,4,5,6,7,8b-hexahydro-1H-indeno[1,2-b]pyrrol-2-one] was tested, and the “Germination (%)” value [1, 4] was 88%, the “Germination (%)” value [1, 5] was 88% and the “Germination (%)” value [1, 6] was 88.4%. For the same compound, the “Germination inducing effect on Orobanche cumana seeds (summary in words)” value (from here on “Germination inducing effect”) [1] was “germination inducing effect”, the “Gmax (total germination)” value [2, 7] was 55.0% and the “stimulation (extra germination compared to the DMSO treatment, expressed as percentage of the DMSO treatment)” value ([2]; Table 7) was 80.0%. The “Gmax (total germination)” value [2, 8] was 95.0%, the “acceleration (hours faster than the DMSO treatment to reach 50% of total germination)” value ([2]; Table 8) was 6.6 h and the “t50 (time needed to reach 50% of total germination)” value ([2]; Table 8) was 74.3 h.

For `CC1=CC(O/C=C2/C(=O)N[C@@H]3C4=CCC[C@H]4C[C@H]23)OC1=O` (some centres unmarked) [Compound P4, 3E 3-[[4-methyl-5-oxo-2H-furan-2-yl]oxymethylene]-1,3a,4,4a,5,6,7b-hexahydropentaleno[1,2-b]pyrrol-2-one], the “Germination (%)” value [1, 9] was 73.4%, the “Germination (%)” value [1, 10] was 82.6% and the “Germination (%)” value [1, 11] was 68.4%. The “Germination inducing effect” value [1] was “germination inducing effect”.

`CC1=C[C@H](O/C=C2/C(=O)N[C@@H]3C4=CCCC[C@H]4C[C@H]23)OC1=O` [Compound P2, (3E,3aR,4aS,8bS)-3-[[(2R)-4-methyl-5-oxo-2H-furan-2-yl]oxymethylene]-1,3a,4,4a,5,6,7,8b-octahydroindeno[1,2-b]pyrrol-2-one] was tested, and the “Germination (%)” value [1, 12] was 92.6%, the “Germination (%)” value [1, 13] was 91.0% and the “Germination (%)” value [1, 14] was 91.0%. For the same compound, the “Germination inducing effect” value [1] was “germination inducing effect”.

`CC1=C[C@@H](O/C=C2/C(=O)N[C@@H]3C4=CCCC[C@H]4C[C@H]23)OC1=O` [Compound B2, (3E,3aR,4aS,8bS)-3-[[(2S)-4-methyl-5-oxo-2H-furan-2-yl]oxymethylene]-1,3a,4,4a,5,6,7,8b-octahydroindeno[1,2-b]pyrrol-2-one] was tested, and the “Germination (%)” value [1, 15] was 80.4%, the “Germination (%)” value [1, 16] was 89.2% and the “Germination inducing effect” value [1] was “germination inducing effect”. For the same compound, the “Germination (%)” value [3] was 91.8%.

For `CC1=C[C@H](O/C=C2/C(=O)N(C(=O)OC(C)(C)C)[C@@H]3C4=CCC[C@H]4C[C@H]23)OC1=O` [Compound P5, Tert-butyl (3E,3aR,4aS,7bS)-3-[[4-methyl-5-oxo-2H-furan-2-yl]oxymethylene]-2-oxo-3a,4,4a,5,6,7b-hexahydropentaleno[1,2-b]pyrrole-1-carboxylate], the “Germination (%)” value [1, 9] was 90.6%, the “Germination (%)” value [1, 10] was 80.8% and the “Germination (%)” value [1, 11] was 89.6%.

With `CC1=C[C@H](O/C=C2/C(=O)O[C@@H]3c4ccccc4C[C@H]23)OC1=O` [GR24, reference compound] the “Germination (%)” value [1, 4] was 20.4%, the “Germination (%)” value [1, 5] was 61.0% and the “Germination (%)” value [1, 6] was 86.2%. The “Germination (%)” value [1, 12] was 67%, the “Germination (%)” value [1, 13] was 65% and the “Germination (%)” value [1, 14] was 78.4%. The “Germination (%)” value ([1]; Table 5, 0.001 mg l^-1, seed lot IN153) was 88%, the “Germination (%)” value [1, 15] was 86.6% and the “Germination (%)” value [1, 16] was 95.2%. The “Germination (%)” value [1, 9] was 26%, the “Germination (%)” value [1, 10] was 51% and the “Germination (%)” value [1, 11] was 84.2%. The “Gmax (total germination)” value [2, 7] was 73.0%, the “stimulation (extra germination compared to the DMSO treatment, expressed as percentage of the DMSO treatment)” value ([2]; Table 7) was 140.0% and the “Gmax (total germination)” value [2, 8] was 100.0%. The “acceleration (hours faster than the DMSO treatment to reach 50% of total germination)” value ([2]; Table 8) was 8.7 h and the “t50 (time needed to reach 50% of total germination)” value ([2]; Table 8) was 72.2 h.
